# Assay results from patent publication US10081812B2, “D-amino acid-inducible gene expression system for Rhodosporidium and Rhodotorula” (TEMASEK LIFE SCIENCES LABORATORY LIMITED, priority 2015, dated 2018).
# Legend:
# DAO1 promoter (PDAO1in) = experiment: Luciferase reporter assay of 2.2 kb intron 1-containing DAO1 promoter (PDAO1in) reporter strains; type: cell-based, R. toruloides; settings: for induction of DAO1 promoter by D-amino acid: 70 mM as the sole carbon and nitrogen source in MinABs, 21 h induction, FIG. 8
# Description: (§1) For gene induction studies, modified MinAB (MinABs) (28) with carbon source and nitrogen source (NH4NO3) omitted was used as basal medium. Carbon source (10 g/L glucose, 70 mM L-alanine or D-alanine) and nitrogen source (70 mM ammonium sulfate, L-alanine or D-alanine) were supplemented as required. For stress treatments, YPD broth was used as the basal medium and cultured after supplementation of various chemicals, or in harsh conditions. Unless indicated otherwise, cell cultures were conducted in a rotary shaker under 28° C. and 250 rpm.
# Yeast strains transformed with PDAOinx::RtLUC2 cassettes were cultured in YPD broth to mid-exponential phase. Cells were water-washed twice and resuspended in MinABs plus 70 mM of either D-alanine or L-alanine to a cell optical density at 600 nm (OD600) of 0.5 and continued culturing at 30° C., 250 rpm for 21 hr. Cells were harvested, washed and resuspended in PBS buffer supplemented with 1 mM DTT, 3 mM β-mercaptoethanol and 1 mM PMSF (pH7.4) supplemented with equal volume of 0.5 mm glass beads (Sigma-Aldrich, USA), and lysed with FastPrep 24™ 5 G (MP Biomedicals, Irvine, Calif., USA) for 40 seconds. The protein concentration and luciferase activity was determined using Bradford method and a commercial luciferase assay kit (Promega, USA) under the supplier's protocol, respectively. All data was measured and acquired with the Infinite M200 plate reader coupled with the iCycler software (version 3.0, Tecan, Salzburg, Austria). All experiments were performed in both biological and statistical triplicates. For determination of relative promoter activity (RPA), luminescence value was subtracted against the blank or negative control (promoter-less strain), normalized against the protein concentration, then normalized against either the values of PGPD1 or the maximum reading.
# To investigate the effects of carbon and nitrogen sources on promoter activity, 3 strains with 2.2 kb intron 1-containing DAO1 promoter (PDAO1in) knocked in at the CAR2 locus were cultured in the modified MinAB medium (MinABs), which had glucose and ammonium sulfate supplemented to the basal medium MinAB when necessary.
# Here, substrate selectivity of the 2.2 kb DAO1 promoter (PDAO1in) reporter strains was investigated on their inducibility by different D-amino acids.
# DAO1 mRNA = experiment: qRT-PCR of DAO1 mRNA transcripts in R. toruloides cells; type: cell-based
# Description: as §1
# Total RNA was treated with DNase I (Roche Diagnostics) and recovered by ethanol precipitation to remove the trace DNA. cDNA was synthesized using the iScript™ Reverse Transcription Supermix for RT (Bio-Rad, USA) and real-time PCR was conducted in ABI PRISM 7900HT Sequence Detection System (Life Technologies, USA) using the ABI SYBR® Select Master Mix (Life Technologies, USA). PCR conditions were as followed: an initial 50° C. for 2 min and 95° C. denaturation step for 10 min followed by 40 cycles of denaturation at 95° C. for 15 s, annealing at 60° C. for 1 min. Triplicates were used for all qRT-PCR analyses. The data was acquired using the software SDS 2.4 (Applied Biosystems, Life Technologies, USA) and relative gene expression was calculated against the reference gene ACT1 (nucleotide sequence: SEQ ID NO:89; amino acid sequence: SEQ ID NO:90) with the 2-ΔΔCt method through the RQ Manager software v1.2.1 (Applied Biosystems, USA).
# To investigate the regulation DAO1 gene expression, the mRNA level in cells cultured in YPD medium supplemented with D-alanine or L-alanine levels was quantitated by qRT-PCR using the Actin mRNA (ACT1) as the reference. As expected, DAO1 mRNA expression was negligible when cells were cultured in MinABs medium supplemented with L-alanine or ammonium sulfate as the sole nitrogen source (FIG. 4B).
# [1] = tested on: DAO1 mRNA transcripts / Dao1 protein; settings: induction with D-alanine; cited from earlier work
structure (smiles),measurement,setting,value
CC(C)[C@@H](N)C(=O)O [D-valine],induction of DAO1 promoter by D-amino acid,DAO1 promoter (PDAO1in),similarly effective
OCC(O)CO [glycerol],DAO1 transcription compared to that of glucose,"DAO1 mRNA; substance as the sole carbon source (YPG broth), 6 hour, 28° C., FIG. 4C",enhance DAO1 transcription
CSCC[C@@H](N)C(=O)O [D-methionine],induction of DAO1 promoter by D-amino acid,DAO1 promoter (PDAO1in),significantly less effective
CC(C)C[C@@H](N)C(=O)O [D-leucine],induction of DAO1 promoter by D-amino acid,DAO1 promoter (PDAO1in),significantly less effective
O=C(O)[C@H]1CCCN1 [D-proline],induction of DAO1 promoter by D-amino acid,DAO1 promoter (PDAO1in),similarly effective
C[C@H](O)[C@@H](N)C(=O)O [D-threonine],induction of DAO1 promoter by D-amino acid,DAO1 promoter (PDAO1in),similarly effective
N[C@H](Cc1ccccc1)C(=O)O [D-phenylalanine],induction of DAO1 promoter by D-amino acid,DAO1 promoter (PDAO1in),significantly less effective
C[C@@H](N)C(=O)O [D-alanine],induction of DAO1 promoter by D-amino acid,DAO1 promoter (PDAO1in),most preferably induced
same,luciferase expression among media,"DAO1 promoter (PDAO1in); MinABs supplemented with 70 mM D-alanine only, FIG. 7A",Best luciferase expression
same,concentration effective in driving expression of the reporter gene (as low as),"DAO1 promoter (PDAO1in); MinABs with 10 g/L glucose, FIG. 7B",20 mM
same,Dao1 protein share of the soluble intracellular proteins,[1],1.0%
same,time of peak of DAO1 mRNA transcripts after induction,[1],≤ 12 h
same,DAO1 mRNA level relative to control medium,"DAO1 mRNA; 6-hr after D-alanine supplementation, both glucose and ammonium sulfate omitted, FIG. 4B",~100 fold
same,DAO1 mRNA level increase,"DAO1 mRNA; cultured in the presence of 70 mM D-alanine, ACT1 reference, FIG. 4B",12-18 folds
N.N.O=S(=O)(O)O [ammonium sulfate],effect on D-alanine-induced DAO1in promoter activity,"DAO1 promoter (PDAO1in); added to MinABs with 70 mM D-alanine, glucose 10 g/L, ammonium sulfate 70 mM, FIG. 7A",little effect
same,effect of concentration on DAO1 promoter activity,"DAO1 promoter (PDAO1in); glucose 10-100 g/L, ammonium sulfate 5-50 mM, with 70 mM D-alanine, FIGS. 7C and 7D",only marginal effects
N[C@H](Cc1c[nH]c2ccccc12)C(=O)O [D-tryptophan],induction of DAO1 promoter by D-amino acid,DAO1 promoter (PDAO1in),significantly less effective
N[C@H](CO)C(=O)O [D-serine],induction of DAO1 promoter by D-amino acid,DAO1 promoter (PDAO1in),similarly effective
C[C@H](N)C(=O)O [L-alanine],reduction of luciferase expression,"DAO1 promoter (PDAO1in); equal level (70 mM) added as the competitor to 70 mM D-alanine, after 21 hr culture, FIG. 7A",about 5 fold
same,DAO1 mRNA expression,"DAO1 mRNA; MinABs medium, substance as the sole nitrogen source, FIG. 4B",negligible
